{"source": "patent EP1479389B1", "about": "“Ready to use gemcitabine solutions” (STADA ARZNEIMITTEL AG, priority 2003, dated 2004)", "format_in_all_cases": "physicochemical", "key": {"[1]": {"experiment": "Regressive extrapolation of the Table 6 storage stability data to 1-4 years", "conditions": "10 mg/ml in aqueous solution, pH ca. 8; Lagertemperatur 25°C", "protocol": "Eine regressive Extrapolation der in Tabelle 6 angegebenen Daten ergab folgende in Tabelle 7 aufgeführte Lagerstabilitäten. Tabelle 7 : Stabilität von Gemcitabin-Lösungen mit pH = 8,0 bei 25°C, 40°C und 60°C bei einer Lagerzeit von 1-4 Jahren"}, "[2]": {"experiment": "pH-dependent visible crystallisation of concentrated gemcitabine solutions", "conditions": "pH 5,0; 25°C; c=52,7 mg Gemcitabin/ml"}, "[3]": {"experiment": "Temperature-dependent storage stability of gemcitabine solutions pH 4,0, content by HPLC", "conditions": "10 mg/ml", "protocol": "Zur weiteren Bestimmung der Temperatur-Abhängigkeit der Stabilität von erfindungsgemäßen Gemcitabin-Lösungen mit einem pH-Wert von ca. 4,0, wurden wie zuvor beschrieben Lösungen, deren pH-Wert mit 1 N Natronlauge eingestellt wurde, mit einer Gemcitabin-Konzentration von 10 mg/ml (in Wasser für Injektionszwecke) hergestellt. Diese wurden über einen Zeitraum von 12 Monaten gelagert. In dieser Zeit wurde die Wirkstoffkonzentration in regelmäßigen Abständen mittels HPLC bestimmt. Tabelle 3: Temperatur-abhängige Stabilität von Gemcitabin-Lösungen (c(Gemcitabin) = 10 mg/ml entsprechend 11,39 mg Gemcitabinhydrochlorid pro ml Wasser, pH 4,0)"}, "[4]": {"experiment": "pH-dependent visible crystallisation of concentrated gemcitabine solutions", "conditions": "c=52,7mg Gemcitabin/ml", "protocol": "Zur Bestimmung der tatsächlichen, pH-abhängigen Löslichkeit von Gemcitabin in wässrigen Lösungen wurden entsprechend Beispiel 1 konzentrierte Gemcitabin-Lösungen (c=52,7 mg Gemcitabin/ml entsprechend 60mg Gemcitabinhydrochlorid pro ml Wasser; 5 ml/Vial) hergestellt, deren pH-Wert mit q.s. 1 N Natronlauge auf pH-Werte von 2,0 bis 5,0 eingestellt wurde. Die so erhaltenen Lösungen wurden bei einer Lagertemperatur von 2-8°C gelagert.\nTabelle 2: Stabilität von konzentrierten Gemcitabin-Lösungen vs. Auskristallisation des Wirkstoffs"}, "[5]": {"experiment": "Visible precipitation of aqueous gemcitabine solutions on storage (solubility, initial pH ca. 4,0)", "conditions": "water, pH 4, water, 2-8°C storage, no solubility enhancers, read-out: Gehalt klarer partikelfreier Gemcitabinlösungen", "protocol": "Zur Bestimmung der Löslichkeit von Gemcitabin in wässrigen Lösungen (bei T = 25°C und T = 2-8°C, Anfangs-pH-Wert = 4,0) wurde Gemcitabinhydrochlorid in Wasser für Injektionszwecke bei 25°C gelöst (c(Gemcitabin) = 55,2 mg/ml entsprechend 62,8 mg Gemcitabinhydrochlorid pro ml Wasser sowie c(Gemcitabin) = 10,0mg/ml entsprechend 11,38 mg Gemcitabinhydrochlorid pro ml Wasser) und der pH-Wert mit q.s. 1 N Natronlauge / q.s. 1 N Salzsäure eingestellt.\nAus dem so gewonnenen Ansatz wurden mit Wasser für Injektionszwecke verdünnte Lösungen hergestellt und potentiometrisch deren pH-Wert bestimmt. Die hergestellten Lösungen wurden jeweils als 5ml-Aliquote in mit Durchstechstopfen dicht verschlossenen Vials abgefüllt. Diese Proben wurden nach Lagerung bei 2-8°C bzw. bei 25°C auf sichtbare Auskristallisation des Wirkstoffs geprüft (\"+\" Niederschlag; \"-\" klar und partikelfrei) und ihr pH-Wert bestimmt. Tabelle 1: Niederschlagbildung in 25°C und 2-8°C-gelagerter Gemcitabinlösungen (Anfangs-pH ca. 4,0)"}}}
{"smiles": "Nc1ccn([C@@H]2O[C@H](CO)[C@@H](O)C2(F)F)c(=O)n1", "note": "[Gemcitabin, 2'-Deoxy-2',2'-difluorcytidin]", "values": [{"measurement": "Dauer, über die die Lösungen stabil sind", "setting": "[1]", "result": "≥ 3", "unit": "Jahren"}, {"measurement": "Auskristallisation", "setting": "[2]", "result": "spontane (pH 5,0; 25°C) Auskristallisation"}, {"measurement": "Gehalt", "setting": "[3]; 5°C, 0 mon", "result": "100,0 rel.%"}, {"measurement": "Gehalt", "setting": "[3]; 5°C, 3 mon, 129600 min", "result": "99,7 rel.%"}, {"measurement": "Gehalt", "setting": "[3]; 5°C, 6 mon, 259200 min", "result": "99,4 rel.%"}, {"measurement": "Gehalt", "setting": "[3]; 5°C, 9 mon, 388800 min", "result": "99,2 rel.%"}, {"measurement": "Gehalt", "setting": "[3]; 5°C, 12 mon, 518400 min", "result": "99,0 rel.%"}, {"measurement": "Gehalt", "setting": "[3]; 15°C, 0 mon", "result": "100,0 rel.%"}, {"measurement": "Gehalt", "setting": "[3]; 15°C, 3 mon, 129600 min", "result": "99,6 rel.%"}, {"measurement": "Gehalt", "setting": "[3]; 15°C, 6 mon, 259200 min", "result": "99,2 rel.%"}, {"measurement": "Gehalt", "setting": "[3]; 15°C, 9 mon, 388800 min", "result": "98,8 rel.%"}, {"measurement": "Gehalt", "setting": "[3]; 15°C, 12 mon, 518400 min", "result": "98,3 rel.%"}, {"measurement": "Gehalt", "setting": "[3]; 25°C, 0 mon", "result": "100,0 rel.%"}, {"measurement": "Gehalt", "setting": "[3]; 25°C, 3 mon, 129600 min", "result": "97,1 rel.%"}, {"measurement": "Gehalt", "setting": "[3]; 25°C, 6 mon, 259200 min", "result": "94,1 rel.%"}, {"measurement": "Sichtbare Auskristallisation", "setting": "[4]; pH 2,0, nach 1 Tag (2-8°C)", "result": "+"}, {"measurement": "Sichtbare Auskristallisation", "setting": "[4]; pH 2,0, nach 2 Tagen (2-8°C)", "result": "+"}, {"measurement": "Sichtbare Auskristallisation", "setting": "[4]; pH 2,0, nach 3 Tagen (2-8°C)", "result": "+"}, {"measurement": "Sichtbare Auskristallisation", "setting": "[4]; pH 2,0, nach 7 Tagen (2-8°C)", "result": "+"}, {"measurement": "Sichtbare Auskristallisation", "setting": "[4]; pH 2,0, nach 14 Tagen (2-8°C)", "result": "+"}, {"measurement": "Sichtbare Auskristallisation", "setting": "[4]; pH 2,5, nach 1 Tag (2-8°C)", "result": "-"}, {"measurement": "Sichtbare Auskristallisation", "setting": "[4]; pH 2,5, nach 2 Tagen (2-8°C)", "result": "+"}, {"measurement": "Sichtbare Auskristallisation", "setting": "[4]; pH 2,5, nach 3 Tagen (2-8°C)", "result": "+"}, {"measurement": "Sichtbare Auskristallisation", "setting": "[4]; pH 2,5, nach 7 Tagen (2-8°C)", "result": "+"}, {"measurement": "Sichtbare Auskristallisation", "setting": "[4]; pH 2,5, nach 14 Tagen (2-8°C)", "result": "+"}, {"measurement": "Sichtbare Auskristallisation", "setting": "[4]; pH 3,0, nach 1 Tag (2-8°C)", "result": "-"}, {"measurement": "Sichtbare Auskristallisation", "setting": "[4]; pH 3,0, nach 2 Tagen (2-8°C)", "result": "+"}, {"measurement": "Sichtbare Auskristallisation", "setting": "[4]; pH 3,0, nach 3 Tagen (2-8°C)", "result": "+"}, {"measurement": "Sichtbare Auskristallisation", "setting": "[4]; pH 3,0, nach 7 Tagen (2-8°C)", "result": "+"}, {"measurement": "Sichtbare Auskristallisation", "setting": "[4]; pH 3,0, nach 14 Tagen (2-8°C)", "result": "+"}, {"measurement": "Sichtbare Auskristallisation", "setting": "[4]; pH 3,5, nach 1 Tag (2-8°C)", "result": "-"}, {"measurement": "Sichtbare Auskristallisation", "setting": "[4]; pH 3,5, nach 2 Tagen (2-8°C)", "result": "-"}, {"measurement": "Sichtbare Auskristallisation", "setting": "[4]; pH 3,5, nach 3 Tagen (2-8°C)", "result": "-"}, {"measurement": "Sichtbare Auskristallisation", "setting": "[4]; pH 3,5, nach 7 Tagen (2-8°C)", "result": "-"}, {"measurement": "Sichtbare Auskristallisation", "setting": "[4]; pH 3,5, nach 14 Tagen (2-8°C)", "result": "-"}, {"measurement": "solubility", "setting": "[5]", "result": "~10000", "unit": "µg/mL"}]}
